Data on 19 compounds can be found in patent publication US10844049B2, “GLP-1R agonists and uses thereof” (QILU REGOR THERAPEUTICS INC., priority 2018, dated 2020).

Structures are written as SMILES. pEC50: −log10 of the molar value.

In general, pEC50 refers to the EC50 on a negative log10 scale, so that one unit is a factor of ten.

Sequence of GLP1R (P43220 24-463): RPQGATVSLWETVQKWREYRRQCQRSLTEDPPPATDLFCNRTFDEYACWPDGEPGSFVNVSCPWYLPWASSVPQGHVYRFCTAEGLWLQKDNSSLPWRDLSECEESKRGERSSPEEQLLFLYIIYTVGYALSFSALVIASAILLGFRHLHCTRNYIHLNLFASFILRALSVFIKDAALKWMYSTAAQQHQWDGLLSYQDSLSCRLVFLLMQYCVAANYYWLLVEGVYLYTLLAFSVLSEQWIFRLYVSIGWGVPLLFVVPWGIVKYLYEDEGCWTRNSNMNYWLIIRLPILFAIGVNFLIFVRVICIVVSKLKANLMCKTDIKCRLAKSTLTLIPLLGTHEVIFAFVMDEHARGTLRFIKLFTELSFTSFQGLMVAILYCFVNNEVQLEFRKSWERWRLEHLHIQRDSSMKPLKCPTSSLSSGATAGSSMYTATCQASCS

The experiment addresses GLP1R (Homo sapiens, UniProt P43220). Briefly: GLP1R cAMP HTRF assay, HEK293/GLP-1R/CRE/Luc (HEK293T cells). It counts as cell-based. The note with it: read-out: EC50. The protocol:
GLP-1R-mediated agonist activity was determined with a cell-based functional assay utilizing an HTRF (Homogeneous Time-Resolved Fluorescence) cAMP detection kit (cAMP Dynamic 2 Assay Kit; CisBio cat #62AM4PEC) that measures cAMP levels in the cell. The method is a competitive immunoassay between native cAMP produced by the cells and exogenous cAMP labeled with the dye d2. The tracer binding is visualized by a mAb anti-cAMP labeled with Cryptate. The specific signal (i.e., energy transfer) is inversely proportional to the concentration of cAMP in either standard or experimental sample.
A cell line stably expressing the receptor was isolated.
Varying concentrations of each compound to be tested (in DMSO) were diluted in DMSO to obtain 200× compound working solution first and then 50 nl compounds were added to a white 384-well assay plate (Greiner 784075) with ECHO. The final DMSO concentration was 0.5%. The compound concentration range may be adjusted at any time.
Cells were removed from cryopreservation, re-suspended in 5 mL of Dulbecco's Phosphate Buffered Saline (DPBS-Sigma Cat # D8537) and centrifuged at 900 g for 5 min at 22° C. The cell pellet was then re-suspended in 1 mL of assay buffer [DPBS with 500 μM IBMX (Sigma #15879) and 0.1% BSA (Sigma # A1933). IBMX and BSA were freshly added on the day of assay]. A 10 μL sample of the cell suspension was counted on an Invitrogen Countess II to determine cell viability and cell count per mL. The remaining cell suspension was then adjusted with assay buffer to deliver 1000 viable cells per well using a Matrix Combi Multidrop reagent dispenser. 10 μL cell suspensions were added to each well of the assay plate which already contains compound. The plate was sealed and incubated at 37° C. with 5% CO2 for 30 minutes.
Following the 30 minute incubation, 5 μL of labeled d2 cAMP and 5 μL of anti-cAMP antibody (both diluted 1:20 in cell lysis buffer; as described in the manufacturer's assay protocol) were added to each well of the assay plate. The plates w ere then incubated at room temperature and after 60 minutes, changes in the HTRF signal were read with an Envision multi-label plate reader using excitation of 330 nm and emissions of 615 and 665 nm. Raw data were converted to nM cAMP by interpolation from a cAMP standard curve (as described in the manufacturer's assay protocol) and the percent effect was determined relative to a saturating concentration of the full agonist GLP-17-37 (10 nM) included on each plate. EC50 determinations were made from agonist dose-response curves analyzed with a curve fitting program using a 4-parameter logistic dose response equation.
3) Anti-cAMP antibody-cryptate working solution preparation • c) The lyophilisate was reconstituted with appropriate amount of distilled water according to manufacturer's instruction to make working stock which can be aliquoted and frozen (−20° C.). • d) The working stock solution was diluted 1:20 in the conjugate and lysis buffer before use. Procedures Procedures for Cell Suspension Preparation • 1. Frozen cells were thawed very briefly in a 37° C. water bath under sterile conditions until just before ice completely melt (for about 1 minute) with a continuous agitation. Caution was taken because a longer incubation could result in cell death. • 2. DMSO was removed from the media by carefully transferring thawed cells to a sterile 15/50 mL tube, filling a tube with 10-50 mL of complete media pre-warmed to 37° C., and allowing the cells to sit 5 min before centrifuging at 900 rpm for 5 minutes for cell collection. • 3. The cells were resuspended with assay buffer. • 4. For stable GLP1-R assay, the optimized cell density is 1000 cells/well. Caution was taken because cell density optimization was crucial and needed to be optimized in different laboratories. The level of cAMP produced by the cells must fall within the linear range of the standard curve.
On the technique in general: Time-resolved FRET reads energy transfer from a long-lived donor to a nearby acceptor.
For `CN(Cc1ccc(Cl)cc1F)c1cccc(N2CCN(Cc3nc4ccc(C(=O)O)cc4n3C[C@@H]3CCO3)CC2)n1` [Compound 2, (S)-2-((4-(6-((4-chloro-2-fluorobenzyl)(methyl)amino)pyridin-2-yl)piperazin-1-yl)methyl)-1-(oxetan-2-ylmethyl)-1 h-benzo[d]imidazole-6-carboxylic acid], the negative-log EC50 (pEC50) was less than 6.00.
The same measure for `O=C(O)c1ccc2nc(CN3CCN(c4ccc5c(n4)N(Cc4ccc(Cl)cc4F)CCC5)CC3)n(C[C@@H]3CCO3)c2c1` [Compound 3, (S)-2-((4-(8-(4-chloro-2-fluorobenzyl)-5,6,7,8-tetrahydro-1,8-naphthyridin-2yl)piperazin-1-yl)methyl)-1-(oxetan-2-ylmethyl)-1 h-benzo[d]imidazole-6-carboxylic acid]: less than 6.00; for `O=C(O)c1ccc2nc(CN3CCN(c4ccc5c(n4)N(Cc4ccc(Cl)cc4F)CCO5)CC3)n(C[C@@H]3CCO3)c2c1` [Compound 4, (S)-2-((4-(4-(4-chloro-2-fluorobenzyl)-3H-dihydro-2H-pyrido[3,2-b][1H]oxazin-6-yl)piperazin-1-yl)methyl)-1-(oxetan-2-ylmethyl)-1H-benzo[d]imidazole-6-carboxylic acid]: less than 6.00; for `Cn1ccnc1Cn1c(CN2CCN(c3ccc4c(n3)N(Cc3ccc(Cl)cc3F)CCO4)CC2)nc2ccc(C(=O)O)cc21` [Compound 5, 2-((4-(4-(4-chloro-2-fluorobenzyl)-3,4-dihydro-2 h-pyrido[3,2-b][1,4]oxazin-6-yl)piperazin-1-yl)methyl)-1-((l-methyl-1 h-imidazol-2-yl)methyl)-1 h-benzo[d] imidazole-6-carboxylic acid]: less than 6.00.
Regarding `O=C(O)c1ccc2nc(CN3CCN(c4ccc(=O)n(CCc5ccc(Cl)cc5F)n4)CC3)n(C[C@@H]3CCO3)c2c1` [Compound 6, (S)-2-((4-(1-(4-chloro-2-fluorophenethyl)-6-oxo-1,6-dihydropyridazin-3-yl)piperazin-1-yl)methyl)-1-(oxetan-2-ylmethyl)-1 h-benzo[d]imidazole-6-carboxylic add], the pEC50 is less than 6.00.
The same measure for `O=C(O)c1ccc2nc(CN3CCN(c4ccc(=O)n(Cc5ccc(Cl)cc5F)n4)CC3)n(C[C@@H]3CCO3)c2c1` [Compound 7, (S)-2-((4-(1-(4-chloro-2-fluorobenzyl)-6-oxo-1,6-dihydropyridazin-3-yl)piperazin-1-yl)methyl)-1-(oxetan-2-ylmethyl)-1 h-benzo[d]imidazole-6-carboxylic acid]: less than 6.00.
In the case of `O=C(O)c1ccc2nc(CN3CCN(c4cccn(CCc5ccc(Cl)cc5F)c4=O)CC3)n(C[C@@H]3CCO3)c2c1` [Compound 8, (S)-2-((4-(1-(4-chloro-2-fluorophenethyl)-2-oxo-1,2-dihydropyridin-3-yl)piperazin-1-yl)methyl)-1-(oxetan-2-ylmethyl)-1h-benzo[d]imidazole-6-carboxylic acid], the negative-log EC50 (pEC50) was less than 6.00.
As to `O=C(O)c1ccc2nc(CN3CCN(c4ccc5ccn(Cc6ccc(Cl)cc6F)c5n4)CC3)n(C[C@@H]3CCO3)c2c1` [Compound 13, (S)-2-((4-(1-(4-chloro-2-fluorobenzyl)-1 h-pyrrolo[2,3-b]pyridin-6-yl)piperazin-1-yl)methyl)-1-(oxetan-2-ylmethyl)-1 h-benzo[d]imidazole-6-carboxylic add], the pEC50 is no less than 6.82.
The same measure for `O=C(O)c1ccc2nc(CN3CCN(c4ccc5ccn(Cc6ccc(Cl)cc6F)c5c4)CC3)n(C[C@@H]3CCO3)c2c1` [Compound 14, (S)-2-((4-(1-(4-chloro-2-fluorobenzyl)-th-indol-6-yl)piperazin-1-yl)methyl)-1-(oxetan-2-ylmethyl)-1 h-benzo[d]imidazole-6-carboxylic acid]: less than 6.00; for `O=C(O)c1ccc2nc(CN3CCCN(c4cccc(OCc5ccc(Cl)cc5F)n4)CC3)n(C[C@@H]3CCO3)c2c1` [Compound 15, (S)-2-((4-(6-(4-chloro-2-fluorobenzyloxy)pyridin-2-yl)-1,4-diazepan-1-yl)methyl)-1-(oxetan-2-ylmethyl)-1 h-benzo[d]imidazole-6-carboxylic acid]: no less than 6.82; for `O=C(O)c1ccc2nc(CN3CC4CC3CN4c3cccc(OCc4ccc(Cl)cc4F)n3)n(C[C@@H]3CCO3)c2c1` (stereo partly drawn) [Compound 16, 2-((5-(6-((4-chloro-2-fluorobenzyl)oxy)pyridin-2-yl)-2,5-diazabicyclo[2.2.1]heptan-2-yl)methyl)-1-(((S)-oxetan-2-yl)methyl)-1 h-benzo[d]imidazole-6-carboxylic acid]: no less than 6.82.
To `O=C(O)c1ccc2nc(CN3CC4CCC3CN4c3cccc(OCc4ccc(Cl)cc4F)n3)n(C[C@@H]3CCO3)c2c1` (stereo partly drawn) [Compound 17, 2-((5-(6-((4-chloro-2-fluorobenzyl)oxy)pyridin-2-yl)-2,5-diazabicyclo[2.2.2]octan-2-yl)methyl)-1-(((S)-oxetan-2-yl)methyl)-1 h-benzo[d]imidazole-6-carboxylic acid] belongs less than 6.00; to `O=C(O)c1ccc2nc(CN3CC=C(c4ccc(=O)n(CCc5ccc(Cl)cc5F)n4)CC3)n(C[C@@H]3CCO3)c2c1` [Compound 20, (S)-2-((4-(1-(4-chloro-2-fluorophenethyl)-6-oxo-1,6-dihydropyridazin-3-yl)-5,6-dihydropyridin-1(2H)-yl)methyl)-1-(oxetan-2-ylmethyl)-1 h-benzo[d]imidazole-6-carboxylic acid], no less than 6.00; to `O=C(O)c1ccc2nc(CN3CCC(c4ccc5ccn(Cc6ccc(Cl)cc6F)c5n4)CC3)n(C[C@@H]3CCO3)c2c1` [Compound 24, (S)-2-((4-(1-(4-chloro-2-fluorobenzyl)-1H-pyrrolo[2,3-b]pyridin-6-yl)piperidin-1-yl)methyl)-1-(oxetan-2-ylmethyl)-1H-benzo[d]imidazole-6-carboxylic add], no less than 6.82.
The same measure for `O=C(O)c1ccc2nc(CN3CC=C(c4ccc5ccn(Cc6ccc(Cl)cc6F)c5n4)CC3)n(C[C@@H]3CCO3)c2c1` [Compound 25, (S)-2-((4-(1-(4-chloro-2-fluorobenzyl)-1 h-pyrrolo[2,3-b]pyridin-6-yl)-5,6-dihydropyridin-1(2H)-yl)methyl)-1-(oxetan-2-ylmethyl)-1 h-benzo[d]imidazole-6-carboxylic acid]: no less than 6.82.
Turning to `O=C(O)c1ccc2nc(CN3CCC(c4ccc5ccn(Cc6ccc(Cl)cc6F)c5c4)CC3)n(C[C@@H]3CCO3)c2c1` [Compound 26, (S)-2-((4-(1-(4-chloro-2-fluorobenzyl)-1 h-indol-6-yl)piperidin-1-yl)methyl)-1-(oxetan-2-ylmethyl)-1 h-benzo[d]imidazole-6-carboxylic acid], the negative logarithm of the EC50 (pEC50) was less than 6.00.
To `O=C(O)c1ccc2nc(CN3CC=C(c4ccc5ccn(Cc6ccc(Cl)cc6F)c5c4)CC3)n(C[C@@H]3CCO3)c2c1` [Compound 27, (S)-2-((4-(1-(4-chloro-2-fluorobenzyl)-1 h-indol-6-yl)-5,6-dihydropyridin-1(2H)-yl)methyl)-1-(oxetan-2-ylmethyl)-1 h-benzo[d]imidazole-6-carboxylic add] belongs less than 6.00; to `O=C(O)c1ccc2nc(CN3CC=C(c4cc(OCc5ccc(Cl)cc5F)ccn4)CC3)n(C[C@@H]3CCO3)c2c1` [Compound 30, (S)-2-((4-((4-chloro-2-fluorobenzyl)oxy)-3′,6′-dihydro-[2,4′-bipyridin]-1′(2′H)-yl)methyl)-1-(oxetan-2-ylmethyl)-1 h-benzo[d]imidazole-6-carboxylic add], no less than 6.82.
For `O=C(O)c1ccc2nc(CN3CC=C(c4ccnc(OCc5ccc(Cl)cc5F)c4)CC3)n(C[C@@H]3CCO3)c2c1` [Compound 31, (S)-2-((2′-((4-chloro-2-fluorobenzyl)oxy)-3,6-dihydro-[4,4′-bipyridin]-1(2H)-yl)methyl)-1-(oxetan-2-ylmethyl)-1H-benzo[d]imidazole-6-carboxylic add], the negative-log EC50 (pEC50) was no less than 6.00.
